Experimental data from US10550097B2, “Selective 11-beta-hydroxysteroid dehydrogenase type 1 inhibitors” (DSM IP ASSETS B.V., priority 2015, dated 2020).

Key:
[1] = system: Human skin from abdominal plastic surgery; test: Ex vivo: total dermal collagen after cortisone and cortisone/inhibitor treatment; format: cell-based; conditions: day 6; for Dermal collagen: cortisone/inhibitor treatment, topical daily, untreated set to 100%
Experimental: Human skin from abdominal plastic surgery was used. The skin samples were cut in pieces of ˜8×3 mm (ø×thickness) and cultured up to day 6 in an air-liquid interface in a perforated ring of stainless steel in contact with a culture medium (modified Williams' E medium), while renewing the culture medium on day 3. Six skin specimens were used for each test sample. Each test sample (4 μl) was applied topically on top of each piece after cleaning of the surface with a cotton pad, which was subsequently covered with a 6 ø mm delivery membrane, this procedure was repeated daily. After 6 days skin sections were stained with Picrosirius Red histochemical staining, that dyes collagen fibers in purple-red. The papillary dermis was selected for the analysis. The different colors of the pictures were separated by using a deconvolution matrix. After deconvolution only pink-reddish images are used. Within these images the evaluation of dermal collagen was performed by estimating both color intensity and distribution with IMAGE J (NIH) analysis software. Two slides of each skin sample were processed by image acquisition and related analysis (i.e. 12 images for each treatment).

11β-HSD1 = 11β-HSD1 (Homo sapiens, UniProt P28845); test: 11β-HSD1 enzyme activity assay in cell lysates of transfected HEK-293 cells (HHH7 clone); format: biochemical; set-up: expressed in transfected cells; host or cells: HEK-293 (HHH7 clone), used as cell lysate; conditions: inhibitor 100 nM, 200 nM cortisone, 450 μM NADPH, 10 min
Experimental: Stably transfected human embryonic kidney (HEK-293) cells expressing 11β-HSD1 and hexose-6-phosphate dehydrogenase (the so called HHH7 clone) were cultivated for 48 h in Dulbecco's modified Eagle medium (DMEM) containing 4.5 g/L glucose, 10% fetal bovine serum, 100 U/mL penicillin, 0.1 mg/mL streptomycin, 1×MEM nonessential amino acids, and 10 mM HEPES buffer, pH 7.4. The cells were then washed with phosphate-buffered saline, and centrifuged for 4 min at 150×g. After removal of the supernatants, cell pellets were snap frozen on dry ice and stored at −80° C. until further use.
Cell lysates were incubated for 10 min at 37° C. in TS2 buffer (100 mM NaCl, 1 mM EGTA, 1 mM EDTA, 1 mM MgCl2, 250 mM sucrose, 20 mM Tris-HCl, pH 7.4) in a final volume of 22.2 μL containing either solvent (0.1% DMSO) or the inhibitor at the respective concentration as indicated in Table 4 (see below).
The steroids were separated by TLC, using methanol-chloroform (1:9) as solvent, followed by scintillation counting and calculation of substrate concentration. Data were collected from four independent measurements (standard deviation<10%).

11β-HSD1, sequence (P28845 whole entry): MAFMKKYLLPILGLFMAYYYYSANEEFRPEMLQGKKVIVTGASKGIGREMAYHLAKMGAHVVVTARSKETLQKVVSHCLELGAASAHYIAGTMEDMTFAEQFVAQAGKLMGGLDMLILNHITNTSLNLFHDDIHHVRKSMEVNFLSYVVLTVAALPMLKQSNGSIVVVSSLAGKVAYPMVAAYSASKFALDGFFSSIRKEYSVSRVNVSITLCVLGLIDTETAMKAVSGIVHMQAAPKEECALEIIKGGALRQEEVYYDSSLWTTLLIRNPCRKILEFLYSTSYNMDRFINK

11β-HSD1 Remaining activity [% of control] (11β-HSD1): 31 % of control
SMILES: Cc1ccc(-c2cccc(C(=O)N3CCCCCC3)c2)cn1 [IV-e, azepan-1-yl(3-(6-methylpyridin-3-yl)phenyl)methanone]
Dermal collagen ([1]; 10 μM in DMSO): 103%
Increase versus cortisone (#2) ([1]; 10 μM in DMSO): +34%
Dermal collagen ([1]; 100 μM in DMSO): 101%
Increase versus cortisone (#2) ([1]; 100 μM in DMSO): +31%
Dermal collagen ([1]; 200 μM in DMSO): 96%
Increase versus cortisone (#2) ([1]; 200 μM in DMSO): +25%
